System: Antiglucocorticoid effectiveness
Experiment: Antiglucocorticoid effectiveness in % of RU 486
Details: RU 486 effectiveness = 100%
Source text: Antiglucocorticoid effectiveness of compounds A to G;
the effectiveness is indicated in % of th

Structure (SMILES)	Antiglucocorticoid effectiveness (in % of RU 486) [%]
C#CC[C@@]1(O)CC[C@@H]2[C@@H]3CCC4=CC(=O)CCC4=C3[C@@H](c3ccc(C(C)=O)cc3)C[C@@]21C [B, 11beta-(4-acetylphenyl)-17alpha-hydroxy-17-(prop-2-inyl)-14beta-estra-4,9-dien-3-one]	1
CN(C)c1ccc([C@H]2C[C@@]3(C)[C@H](CC[C@]3(O)CCCO)[C@@H]3CCC4=CC(=O)CCC4=C32)cc1 [F, 11beta-(4-dimethylaminophenyl)-17alpha-hydroxy-17-(3-hydroxypropyl)-14beta-estra-4,9-dien-3-one, reference compound]	2
C=Cc1ccc2c(c1)C[C@]13CCC(=O)C=C1CC[C@@H]1[C@@H]3[C@@H]2C[C@@]2(C)[C@@H]1CC[C@]2(O)CCCO [E, 17-hydroxy-17beta-(3-hydroxypropyl)-11beta,19-(4-vinyl-o-phenylene)-14beta-androst-4-en-3-one]	1
CC#C[C@@]1(O)CC[C@@H]2[C@@H]3CCC4=CC(=O)CCC4=C3[C@@H](c3ccc(C(C)=O)cc3)C[C@@]21C [A, 11beta-(4-acetylphenyl)-17alpha-hydroxy-17-(prop-1-inyl)-14beta-estra-4,9-dien-3-one]	1
C[C@]12C[C@@H]3c4ccc(-c5cccnc5)cc4C[C@]45CCC(=O)C=C4CC[C@H]([C@H]35)[C@H]1CC[C@]2(O)CCCO [D, 17-hydroxy-17beta-(3-hydroxypropyl)-11beta,19-(4-(3-pyridyl)-o-phenylene]-14beta-androst-4-en-3-one]	0
COc1ccc2c(c1)C[C@]13CCC(=O)C=C1CC[C@@H]1[C@@H]3[C@@H]2C[C@@]2(C)[C@@H]1CC[C@]2(O)CCCO [C, 17-hydroxy-17beta-(3-hydroxypropyl)-11beta,19-(4-methoxy-o-phenylene)-14beta-androst-4-en-3-one]	0

System: mammary gland (tubulo-alveolar gland end pieces)
Experiment: Antiproliferative potency of progesterone antagonists on the mammary gland, bioassay in ovariectomized rats (whole mount, inguinal mammary gland)
Type: in vivo, rat
Details: 3 days, estrone 10 micrograms + progesterone 3 mg, antagonist 1 mg/animal/day, relative to G = 100%
Method: The antiproliterative potency of progesterone antagonists on the mammary gland was determined in a bioassay. For this purpose, ovariectomized rats were substituted for 3 days with estrone (10 micrograms) and progesterone (3 mg) and another group at the same time was treated with the following progesterone antagonists (1 mg/animal/day):
The entire inguinal mammary gland was dissected by performance of the "whole mount" technique (Lyons and Johnson, 1952). Of six animals, the number of tubulo-alveolar gland end pieces is determined by 40 times magnification.
The antiproliterative potency is expressed in percent of the inhibition of the tubulo-alveolar end pieces corresponding to the following formula:
(estrone (E)+progesterone (P))-(E+P+G)=100% of treated animals
(E+P)-(test compound H or I)=X%

Structure (SMILES)	% inhibition of the tubulo-alveolar end pieces [%]
C[C@]12C[C@H](c3ccc(-c4cccnc4)cc3)C3=C4CCC(=O)C=C4CC[C@H]3[C@H]1CC[C@]2(O)CCCO [H, 11beta-[4-(3-pyridyl)phenyl]-17alpha-hydroxy-17-(3-hydroxypropyl)-14beta-estra-4,9-dien-3-one]	92
CN(C)c1ccc([C@H]2C[C@@]3(C)[C@H](CC[C@]34CCCO4)[C@@H]3CCC4=CC(=O)CCC4=C32)cc1 [I, 11beta-(4-dimethylaminophenyl)-4,5-dihydro-spiro[14beta-estra-4,9-diene-17alpha,2'(3'H)-furan]-3-one]	13
CC#C[C@]1(O)CC[C@H]2[C@@H]3CCC4=CC(=O)CCC4=C3[C@@H](c3ccc(C(C)=O)cc3)C[C@@]21C [G, 11beta-(4-acetylphenyl)-17beta-hydroxy-17alpha-(1-propinyl)-4,9-estradien-3-one]	100

Reference: patent US5244886A, “11β-phenyl-14βH steroids” (Schering Aktiengesellschaft, priority 1988, dated 1993)
